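96-well plates; 48 h exposure; 5 concentrations. Endpoints by linear interpolation between flanking doses. Not reached: highest tested concentration assigned. TGI marks complete inhibition of growth.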
What was measured:
Assay in all cases: NCI tumour cell line growth inhibition, 48 h
[1] = system: SK-OV-3 ovarian
[2] = system: EKVX NSCLC
[3] = system: RXF 393 renal
[4] = system: ACHN renal
[5] = system: SR leukemia
[6] = system: MALME-3M melanoma
[7] = system: LXFL 529 NSCLC
[8] = system: SN12C renal
[9] = system: NCI-H226 lung
[10] = system: OVCAR-5 ovarian
[11] = system: CAKI-1 renal
[12] = system: XF 498 CNS
[13] = system: UACC-62 melanoma
[14] = system: SK-MEL-28 melanoma
[15] = system: K-562 leukemia
[16] = system: KM12 colon
[17] = system: SF-295 CNS
[18] = system: UACC-257 melanoma
[19] = system: A549 NSCLC
[20] = system: LOX IMVI melanoma
[21] = system: NCI-H460 lung
[22] = system: RXF-631 renal
[23] = system: COLO 205 colon
[24] = system: SNB-19 CNS
[25] = system: SNB-75 CNS
[26] = system: NCI-H23 lung
[27] = system: HL-60(TB) leukemia
[28] = system: DMS 114 small cell lung
[29] = system: UO-31 renal
[30] = system: SW-620 colon
[31] = system: M19-MEL melanoma
[32] = system: OVCAR-8 ovarian
[33] = system: RPMI-8226 leukemia
[34] = system: SK-MEL-2 melanoma
[35] = system: IGROV1 ovarian
[36] = system: HCT-15 colon
[37] = system: SF-539 CNS
[38] = system: HCT-116 colon
[39] = system: M14 melanoma
[40] = system: HOP-62 NSCLC
[41] = system: DLD-1 colon
[42] = system: HCC-2998 colon
[43] = system: MOLT-4 leukemia
[44] = system: SF-268 CNS
[45] = system: KM20L2 colon
[46] = system: CCRF-CEM leukemia
[47] = system: TK-10 renal
[48] = system: DMS 273 small cell lung
[49] = system: U251 CNS
[50] = system: 786-0 renal
[51] = system: HT29 colon
[52] = system: OVCAR-3 ovarian
[53] = system: OVCAR-4 ovarian
[54] = system: NCI-H522 lung
[55] = system: SNB-78 CNS
[56] = system: HOP-92 NSCLC
[57] = system: HOP-18 NSCLC

Measured: TGI

CC1CC2(S(=O)(=O)c3ccccc3)ON1CC2S(=O)(=O)c1ccccc1 (stereo not given)
not listed: [55] | [56] | [57]
> 100 µM: all other assays above

O=C1c2ccccc2C(=O)C12CCc1ccccc12
not listed: [5] | [9] | [10] | [16] | [18] | [24] | [33] | [34] | [37] | [38] | [54]
> 100 µM: all other assays above

Source: PubChem BioAssay (NCI)
